We go through 3 compounds from patent US20130324461A1, “METHODS AND COMPOSITIONS FOR PREVENTING OR TREATING OBESITY” (priority 2010, published 2013).

Common to all, as to format: in vivo
Assay [1] is described as follows: Body weight of mice on high-fat diet, treated or untreated with A2AR agonist CGS21680 (Example 3, FIG. 3 left panel). How it is done:
Mice were untreated or treated with the A2AR agonist CGS21680 (Tocris) at different time points. CGS21680 (Tocris) was injected s.c. at a dose of 0.5 mg/kg daily either from week 9 to week 13, from week 13 to week 19, or from week 9 to week 19, as indicated in the FIG. 3 legends. Male mice (8 mice per group) were fed a high-fat diet (where 60% of calories are derived from fat) or low-fat diet (where 10% of calories are derived from fat) and the weight of the mice was measured. Special diets were obtained from Research Diets (New Brunswick, N.J.). One group of mice received no A2AR agonist at all (represented by diamonds in the graphs of FIG. 4); another group of mice was received CGS21680 only from week 9 to 13 (triangles); another group of mice received CGS21680 only from week 13 to 19 (squares); another group of mice received CGS21680 from week 9 to 19 (crosses). […] Some mice in the group that received no A2AR agonist at all (diamonds) almost doubled their weight between weeks 9 and 19, reaching up to 50 g total weight. […] Mice that were not injected from week 9 to 13 (squares) reached almost 40 g of weight by week 13.

The nature of assay [2]: Body weight of mice on low-fat diet, treated or untreated with A2AR agonist CGS21680 (Example 3, FIG. 3 right panel). How it is done: Mice were untreated or treated with the A2AR agonist CGS21680 (Tocris) at different time points. CGS21680 (Tocris) was injected s.c. at a dose of 0.5 mg/kg daily either from week 9 to week 13, from week 13 to week 19, or from week 9 to week 19, as indicated in the FIG. 3 legends. Male mice (8 mice per group) were fed a high-fat diet (where 60% of calories are derived from fat) or low-fat diet (where 10% of calories are derived from fat) and the weight of the mice was measured. Special diets were obtained from Research Diets (New Brunswick, N.J.). One group of mice received no A2AR agonist at all (represented by diamonds in the graphs of FIG. 4); another group of mice was received CGS21680 only from week 9 to 13 (triangles); another group of mice received CGS21680 only from week 13 to 19 (squares); another group of mice received CGS21680 from week 9 to 19 (crosses). […] Mice in the group that received no A2AR agonist at all (diamonds) gained a small amount of weight reaching up to ˜35 g by week 19. This is much less than the weight reached by mice on the high-fat diet (˜50 g). […] Mice that were not injected with from week 9 to 13 (squares) did gain weight by week 13.

Assay [3] deals with serum leptin. As to the kind of experiment: Serum leptin levels by ELISA after A2AR agonist injection (Example 4, FIG. 4). The conditions noted are these: 8 week old female C57BL/6 mice, 0.5 mg/kg s.c., after 1 and 2 h, p<0.05. How it is done:
To elucidate the mechanism by which A2AR agonists reduce weight gain, serum leptin levels were quantified in mice treated with an A2AR agonist. 8 week old Female C57BL/6 mice received subcutaneous injection of the A2AR agonist CGS21680 (0.5 mg/kg). After 1 and 2 h, serum leptin levels were measured by ELISA. […] The data shown in FIG. 4 represent average±SD (n=4). The statistical significance was calculated by Student's t-test: *, p<0.05.
In general terms: An ELISA detects its analyte on a solid surface through an enzyme-linked reagent.

Assay [4] can be described thus: Weight gain of mice on high-fat diet treated with various A2AR agonists (Example 5, FIG. 5). The conditions noted are these: male C57BL/6 mice. How it is done: Mice receiving a high-fat diet were treated with the A2AR agonists 2-[4-(2-aminoethylaminocarbonylethyl)phenylethylamino]-5′-N-ethylcarboxamidoadenosine (APEC) bistrifluoroacetic acid or 2 5′-N-ethylcarboxamidoadenosine (NECA). Male C57BL/6 mice (n=5) were provided a high-fat diet beginning at day 0. Also beginning on day 0, the mice were treated with daily subcutaneous injection of A2AR agonist. APEC was administered at 0.25 mg/kg/day, and NECA at 0.02 mg/kg/day.

Take `CCNC(=O)[C@H]1O[C@@H](n2cnc3c(N)nc(NCCc4ccc(CCC(=O)O)cc4)nc32)[C@H](O)[C@@H]1O` [CGS21680, 3-[4-[2-[[6-amino-9-[(2R,3R,4S,5S)-5-(ethylcarbamoyl)-3,4-dihydroxy-oxolan-2-yl]purin-2-yl]amino]ethyl]phenyl]propanoic acid]: the weight gain result in assay [1] (male mice, high-fat diet (60% of calories from fat), 0.5 mg/kg s.c. daily from week 9 to week 19) was “gained little or no weight”; in assay [2] (male mice, low-fat diet (10% of calories from fat), 0.5 mg/kg s.c. daily from week 9 to week 19), “gained very little weight”. Further, the “weight gain between weeks 9 and 13” value in assay [1] (male mice, high-fat diet, 0.5 mg/kg s.c. daily only from week 9 to 13) is recorded as “gained essentially no weight”. Moreover, the “further weight gain after start of injections” value in assay [1] (male mice, high-fat diet, 0.5 mg/kg s.c. daily only from week 13 to 19) is listed as “Essentially no further weight gain”; in assay [2] (male mice, low-fat diet, 0.5 mg/kg s.c. daily only from week 13 to 19), “essentially no more weight gain”. Besides, the body weight gain result in assay [1] (mice treated continuously (week 9 to 19), regardless of high-fat or low-fat diet) is “minimal”. Moreover, in assay [2] (male mice, low-fat diet, 0.5 mg/kg s.c. daily only from week 9 to 13), the “weight gain until week 13” value was “gained essentially no weight”. The “effect on weight gain (overall statement)” value in assay [2] (mice on low fat diet, 0.5 mg/kg s.c. daily) was “prevented or limited weight gain”. Moreover, the serum leptin levels entry in assay [3] is recorded as “significantly increased”.

Turning to `CCNC(=O)[C@H]1O[C@@H](n2cnc3c(N)nc(NCCc4ccc(CCC(=O)NCCN)cc4)nc32)[C@H](O)[C@@H]1O` [APEC, 2-[4-(2-aminoethylaminocarbonylethyl)phenylethylamino]-5′-N-ethylcarboxamidoadenosine], the “weight gain compared to the control group” value in assay [4] (high-fat diet from day 0, daily s.c. 0.25 mg/kg/day) was “dramatic reduction in weight gain”.

As for `CCNC(=O)[C@H]1O[C@@H](n2cnc3c(N)ncnc32)[C@H](O)[C@@H]1O` [NECA, 5′-N-ethylcarboxamidoadenosine], the “weight gain compared to the control group” value in assay [4] (high-fat diet from day 0, daily s.c. 0.02 mg/kg/day) is recorded as “dramatic reduction in weight gain”.
